The record followed here is PubChem BioAssay (NCI).

What all share (test): DTP human tumour cell line panel, 48 h
Assay [1] concerns UACC-257 melanoma.
The test system of assay [2] is MALME-3M melanoma.
Assay [3] concerns HOP-62 NSCLC.
In assay [4] the test system is COLO 205 colon.
Assay [5] relates to HS 578T breast.
For assay [6], the system named is T-47D breast.
Assay [7] has as its system MDA-MB-231 breast.
The subject of assay [8] is K-562 leukemia.
The subject of assay [9] is RPMI-8226 leukemia.
For assay [10], the system named is EKVX NSCLC.

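These data come from cells grown in 96-well plates and exposed to compound for 48 hours at five concentrations. GI50 marks 50% less growth. The concentration for full growth arrest is given as TGI.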

A word on the TGI: it is the concentration at which net growth stops. A high value points to lower sensitivity of the cells. For `O=Cc1cccc2ccc3ccccc3c12`, the TGI in [1] was more than 100 µM; in assay [2], 49.7 µM; in [3] it was 52.4 µM; in [4], 37.5 µM; in [5], 54.7 µM; in assay [6], 92.4 µM. This compound also showed a TGI in assay [7] of 77.3 µM.
As a reminder, the GI50 is the concentration giving 50% growth inhibition. For `Oc1c(C(Nc2ccccn2)c2cccc(Oc3ccccc3)c2)ccc2cccnc12` (centres undefined), the GI50 in [1] is 1.32 µM; in assay [2], 0.806 µM; in assay [3], 0.448 µM; in assay [4] it was 0.492 µM; in assay [5], 0.74 µM; in assay [8], 0.374 µM. The GI50 in assay [9] is 0.6 µM; in assay [6], 0.785 µM; in [7] it was 0.617 µM. The TGI in [1] was 15 µM; in assay [2], 19.7 µM; in assay [3], 21 µM; in assay [4], 14.7 µM; in assay [5], more than 100 µM; in assay [8] it was more than 100 µM. The results for the TGI in [9], in assay [6] and in [7] were 84 µM, 33.2 µM and 19.5 µM, respectively.
`Cn1cc(C2=C(c3c4n(c5ccccc35)CCNC4)C(=O)NC2=O)c2ccccc21`: the GI50 in assay [1] was more than 11.4 µM; in [2], more than 11.5 µM; in assay [3] it was 17.5 µM; in [4], 6.66 µM; in assay [5], 4.14 µM; in assay [8], 4.1 µM. Moreover, the figures for the GI50 in [9], in assay [6] and in [7] were 10.1 µM, more than 21.2 µM and 9.87 µM, respectively. In addition, the TGI in [1] is more than 20.2 µM; in [2] it was more than 24.1 µM; in [3] it was more than 25 µM; in assay [4], more than 21.8 µM; in [5] it was more than 20.5 µM; in [8], more than 25 µM. Further, the TGI is more than 22.3 µM in [9], more than 25 µM in assay [6] and more than 25 µM in [7].
For `O=C(CCCn1c2c(sc3ccccc32)c(=O)n2nnc(-c3ccccc3)c12)NCCc1cnc[nH]1`, the GI50 is 2.2 µM in assay [1]; 1.88 µM in [2]; 1.31 µM in assay [3]; 0.299 µM in assay [4]; 0.783 µM in assay [5]; 0.0456 µM in assay [8]. Also, the GI50 in assay [10] was 3.52 µM; in [6] it was 0.638 µM; in assay [7], 1.91 µM. In addition, the TGI in assay [1] was 4.39 µM; in assay [2] it was 3.58 µM; in [3], 2.87 µM; in assay [4] it was 2.35 µM; in assay [5] it was 2.19 µM; in assay [10], 18.6 µM. In addition, the TGI in assay [6] came out at 10.5 µM; in assay [7] it was 3.5 µM.
As to `O=C1/C(=C/c2ccc([N+](=O)[O-])s2)Oc2cc(Cl)ccc21`, the GI50 in [3] is 7.9 µM; in assay [5] it was 0.519 µM; in assay [8], 0.296 µM; in assay [9], 0.382 µM; in [6] it was 1.5 µM; in assay [7] it was 0.404 µM. The TGI in assay [3] is more than 100 µM; in assay [5], 5.43 µM; in assay [8] it was 1.46 µM; in [9], 2.23 µM; in assay [6], more than 100 µM; in [7], 1.75 µM.
In the case of `COC1=CC(c2ccc[nH]2)=N/C1=C\c1[nH]c(C)c(C(=O)CCC(=O)Oc2ccc3c(c2)CCC2C3CC[C@]3(C)[C@@H](O)CC[C@@H]23)c1C` (some centres undefined), the GI50 is more than 100 µM in assay [1]; 1.87 µM in assay [3]; 5.15 µM in [4]; 3.17 µM in [5]; 2.19 µM in [6]; 0.46 µM in [7]. Also, the concentration for total growth inhibition (TGI) in assay [1] is more than 100 µM; in [3], 4.95 µM; in assay [4] it was more than 100 µM; in assay [5] it was more than 100 µM; in [6], more than 100 µM; in assay [7], 2.55 µM.
Take `COc1ccc(-c2cc(/C=C3\C(=O)Nc4cc(Cl)ccc43)[nH]n2)cc1`: the GI50 in [1] is 26.3 µM; in assay [2] it was 6.23 µM; in [3], 2.75 µM; in [4], 2.06 µM; in assay [5] it was 2.9 µM; in assay [8], 1.56 µM. For the same compound, the GI50 in assay [9] is 3.3 µM; in [6], 6.6 µM; in assay [7], 4.09 µM. Moreover, the TGI in [1] was more than 100 µM; in assay [2], more than 100 µM; in assay [3], 85.9 µM; in [4] it was 5.51 µM; in assay [5] it was 35 µM; in assay [8], 32.3 µM. Also, the figures for the TGI in assay [9], in [6] and in [7] were 40 µM, more than 100 µM and more than 100 µM, respectively.
Regarding `Cc1ccccc1C1=C(c2cn(C)c3ccccc23)C(=O)NC1=O`, the GI50 in [1] is more than 25 µM; in assay [2], 23.9 µM; in assay [3], more than 24.1 µM; in [4] it was 9.01 µM; in assay [5] it was 10 µM; in [8] it was 13.6 µM. Moreover, the GI50 in assay [9] was 20 µM; in [6], 17.8 µM; in assay [7], 21.5 µM. Also, the TGI in assay [1], in assay [2], in assay [3], in assay [4], in [5] and in assay [8] was more than 25 µM throughout. For the same compound, the TGI in assay [9], in assay [6] and in assay [7] was more than 25 µM throughout.
As to `CC1(C)CC(=O)C=C(/C=C/Sc2c(Cl)c(Cl)nc(Cl)c2Cl)C1`, the GI50 in assay [1] was 15.6 µM; in assay [3] it was 12.9 µM; in assay [4], 17.2 µM; in assay [5], 25.8 µM; in assay [8], 8.79 µM; in assay [9], 3.41 µM. Further, in assay [7], the GI50 is 7.22 µM. For the same compound, the TGI in [1] is 31.8 µM; in [3], 27.8 µM; in [4], 31.3 µM; in assay [5], 74.3 µM; in [8] it was more than 100 µM; in assay [9] it was 75.1 µM. Also, the total growth inhibition concentration (TGI) in assay [7] came to 20.4 µM.
